# Source: PubChem BioAssay (NCI)
#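 Following 48 hours of exposure in 96-well plates, responses at five concentrations were used to interpolate endpoints linearly. The concentration for 50% growth inhibition is given as GI50. TGI is the concentration that stops growth completely.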
# Assays:
# Assay in all cases: inhibition of tumour cell growth, NCI panel, 48 h
# HCT-15 colon = tested on: HCT-15 colon
# UACC-257 melanoma = tested on: UACC-257 melanoma
# MDA-MB-435 = tested on: MDA-MB-435
# RXF 393 renal = tested on: RXF 393 renal
# 786-0 renal = tested on: 786-0 renal
# SF-539 CNS = tested on: SF-539 CNS
# HOP-62 NSCLC = tested on: HOP-62 NSCLC
# EKVX NSCLC = tested on: EKVX NSCLC
# NCI-H23 lung = tested on: NCI-H23 lung
# A549 NSCLC = tested on: A549 NSCLC
# SR leukemia = tested on: SR leukemia
# SNB-19 CNS = tested on: SNB-19 CNS
# K-562 leukemia = tested on: K-562 leukemia
# CAKI-1 renal = tested on: CAKI-1 renal
# MOLT-4 leukemia = tested on: MOLT-4 leukemia
# SF-268 CNS = tested on: SF-268 CNS
# OVCAR-5 ovarian = tested on: OVCAR-5 ovarian
# SN12C renal = tested on: SN12C renal
# ACHN renal = tested on: ACHN renal
# HS 578T breast = tested on: HS 578T breast
# SK-MEL-28 melanoma = tested on: SK-MEL-28 melanoma
# BT-549 breast = tested on: BT-549 breast
# SK-MEL-5 melanoma = tested on: SK-MEL-5 melanoma
# IGROV1 ovarian = tested on: IGROV1 ovarian
# NCI-H460 lung = tested on: NCI-H460 lung
# RPMI-8226 leukemia = tested on: RPMI-8226 leukemia
# OVCAR-8 ovarian = tested on: OVCAR-8 ovarian
# UACC-62 melanoma = tested on: UACC-62 melanoma
# MCF7 breast = tested on: MCF7 breast
# SF-295 CNS = tested on: SF-295 CNS
# LOX IMVI melanoma = tested on: LOX IMVI melanoma
# OVCAR-4 ovarian = tested on: OVCAR-4 ovarian
# COLO 205 colon = tested on: COLO 205 colon
# TK-10 renal = tested on: TK-10 renal
# NCI/ADR-RES ovarian = tested on: NCI/ADR-RES ovarian
# SK-MEL-2 melanoma = tested on: SK-MEL-2 melanoma
# MALME-3M melanoma = tested on: MALME-3M melanoma
# HL-60(TB) leukemia = tested on: HL-60(TB) leukemia
# U251 CNS = tested on: U251 CNS
# MDA-MB-231 breast = tested on: MDA-MB-231 breast
# HCC-2998 colon = tested on: HCC-2998 colon
# SK-OV-3 ovarian = tested on: SK-OV-3 ovarian
# KM12 colon = tested on: KM12 colon
# CCRF-CEM leukemia = tested on: CCRF-CEM leukemia
# HOP-92 NSCLC = tested on: HOP-92 NSCLC
# M14 melanoma = tested on: M14 melanoma
# PC-3 prostate = tested on: PC-3 prostate
# HCT-116 colon = tested on: HCT-116 colon
# UO-31 renal = tested on: UO-31 renal
# T-47D breast = tested on: T-47D breast
# DU-145 prostate = tested on: DU-145 prostate
# NCI-H522 lung = tested on: NCI-H522 lung
# NCI-H226 lung = tested on: NCI-H226 lung
# OVCAR-3 ovarian = tested on: OVCAR-3 ovarian
# SW-620 colon = tested on: SW-620 colon
# HT29 colon = tested on: HT29 colon
structure (smiles),measurement,setting,value
S=C(Nc1ccc(-c2nc3ccccc3[nH]2)cc1)Nc1ccc(-c2nc3ccccc3[nH]2)cc1,GI50,HCT-15 colon,61.1 µM
same,TGI,HCT-15 colon,> 100 µM
same,GI50,UACC-257 melanoma,> 100 µM
same,TGI,UACC-257 melanoma,> 100 µM
same,GI50,MDA-MB-435,> 100 µM
same,TGI,MDA-MB-435,> 100 µM
same,GI50,RXF 393 renal,> 100 µM
same,TGI,RXF 393 renal,> 100 µM
same,GI50,786-0 renal,89.7 µM
same,TGI,786-0 renal,> 100 µM
same,GI50,SF-539 CNS,> 100 µM
same,TGI,SF-539 CNS,> 100 µM
same,GI50,HOP-62 NSCLC,> 100 µM
same,TGI,HOP-62 NSCLC,> 100 µM
same,GI50,EKVX NSCLC,> 100 µM
same,TGI,EKVX NSCLC,> 100 µM
same,GI50,NCI-H23 lung,70.3 µM
same,TGI,NCI-H23 lung,> 100 µM
same,GI50,A549 NSCLC,> 100 µM
same,TGI,A549 NSCLC,> 100 µM
same,GI50,SR leukemia,63.4 µM
same,TGI,SR leukemia,> 100 µM
same,GI50,SNB-19 CNS,> 100 µM
same,TGI,SNB-19 CNS,> 100 µM
same,GI50,K-562 leukemia,83.4 µM
same,TGI,K-562 leukemia,> 100 µM
same,GI50,CAKI-1 renal,69.7 µM
same,TGI,CAKI-1 renal,> 100 µM
same,GI50,MOLT-4 leukemia,43.8 µM
same,TGI,MOLT-4 leukemia,> 100 µM
same,GI50,SF-268 CNS,> 100 µM
same,TGI,SF-268 CNS,> 100 µM
same,GI50,OVCAR-5 ovarian,> 100 µM
same,TGI,OVCAR-5 ovarian,> 100 µM
same,GI50,SN12C renal,47.7 µM
same,TGI,SN12C renal,> 100 µM
same,GI50,ACHN renal,> 100 µM
same,TGI,ACHN renal,> 100 µM
same,GI50,HS 578T breast,> 100 µM
same,TGI,HS 578T breast,> 100 µM
same,GI50,SK-MEL-28 melanoma,> 100 µM
same,TGI,SK-MEL-28 melanoma,> 100 µM
same,GI50,BT-549 breast,> 100 µM
same,TGI,BT-549 breast,> 100 µM
same,GI50,SK-MEL-5 melanoma,37.1 µM
same,TGI,SK-MEL-5 melanoma,> 100 µM
same,GI50,IGROV1 ovarian,64.1 µM
same,TGI,IGROV1 ovarian,> 100 µM
same,GI50,NCI-H460 lung,65 µM
same,TGI,NCI-H460 lung,> 100 µM
same,GI50,RPMI-8226 leukemia,71.8 µM
same,TGI,RPMI-8226 leukemia,> 100 µM
same,GI50,OVCAR-8 ovarian,59.6 µM
same,TGI,OVCAR-8 ovarian,> 100 µM
same,GI50,UACC-62 melanoma,38.6 µM
same,TGI,UACC-62 melanoma,> 100 µM
same,GI50,MCF7 breast,28.8 µM
same,TGI,MCF7 breast,> 100 µM
same,GI50,SF-295 CNS,48.4 µM
same,TGI,SF-295 CNS,> 100 µM
same,GI50,LOX IMVI melanoma,> 100 µM
same,TGI,LOX IMVI melanoma,> 100 µM
same,GI50,OVCAR-4 ovarian,> 100 µM
same,TGI,OVCAR-4 ovarian,> 100 µM
same,GI50,COLO 205 colon,> 100 µM
same,TGI,COLO 205 colon,> 100 µM
same,GI50,TK-10 renal,32.4 µM
same,TGI,TK-10 renal,> 100 µM
same,GI50,NCI/ADR-RES ovarian,66.9 µM
same,TGI,NCI/ADR-RES ovarian,> 100 µM
same,GI50,SK-MEL-2 melanoma,> 100 µM
same,TGI,SK-MEL-2 melanoma,> 100 µM
same,GI50,MALME-3M melanoma,52.5 µM
same,TGI,MALME-3M melanoma,> 100 µM
same,GI50,HL-60(TB) leukemia,> 100 µM
same,TGI,HL-60(TB) leukemia,> 100 µM
same,GI50,U251 CNS,> 100 µM
same,TGI,U251 CNS,> 100 µM
same,GI50,MDA-MB-231 breast,41.8 µM
same,TGI,MDA-MB-231 breast,> 100 µM
same,GI50,HCC-2998 colon,45.8 µM
same,TGI,HCC-2998 colon,> 100 µM
same,GI50,SK-OV-3 ovarian,> 100 µM
same,TGI,SK-OV-3 ovarian,> 100 µM
same,GI50,KM12 colon,43.5 µM
same,TGI,KM12 colon,> 100 µM
same,GI50,CCRF-CEM leukemia,92 µM
same,TGI,CCRF-CEM leukemia,> 100 µM
same,GI50,HOP-92 NSCLC,> 100 µM
same,TGI,HOP-92 NSCLC,> 100 µM
same,GI50,M14 melanoma,60.3 µM
same,TGI,M14 melanoma,> 100 µM
same,GI50,PC-3 prostate,> 100 µM
same,TGI,PC-3 prostate,> 100 µM
same,GI50,HCT-116 colon,55.4 µM
same,TGI,HCT-116 colon,> 100 µM
same,GI50,UO-31 renal,31.7 µM
same,TGI,UO-31 renal,> 100 µM
same,GI50,T-47D breast,> 100 µM
same,TGI,T-47D breast,> 100 µM
same,GI50,DU-145 prostate,> 100 µM
same,TGI,DU-145 prostate,> 100 µM
same,GI50,NCI-H522 lung,24.5 µM
same,TGI,NCI-H522 lung,99.4 µM
same,GI50,NCI-H226 lung,39.2 µM
same,TGI,NCI-H226 lung,> 100 µM
same,GI50,OVCAR-3 ovarian,48.9 µM
same,TGI,OVCAR-3 ovarian,> 100 µM
same,GI50,SW-620 colon,> 100 µM
same,TGI,SW-620 colon,> 100 µM
same,GI50,HT29 colon,> 100 µM
same,TGI,HT29 colon,> 100 µM
